Results: publication PMC4585259 (Frontiers in Pharmacology, 2015)
Where two headings read alike, the source gives them in different places.

Target: T1, rNav1.2 sodium channels (Rattus norvegicus, UniProt P04775)
T1 construct: host or cells: HEK-293
Assay: QPatch automated patch clamp, inhibition of sodium currents evoked by 5 Hz trains at three extracellular pH values
Type: cell-based
Conditions: for class of pH-dependence pattern (cluster analysis): Ward's method on 18 variables of affinity, reversibility, onset; for τoffset / τonset: concentration (lidocaine 300 μM, memantine 30 μM)
Method: HEK-293 cells stably expressing rNav1.2 sodium channels were obtained from NeuroSearch (Ballerup, Denmark). The cells were grown in Dulbecco's modified Eagle medium supplemented with 10% FBS. Prior to use, the cells were trypsinized and subsequently kept in suspension in the QPatch cell storage facility in CHO-S- SFM-II medium.
Composition of the extracellular solution was: (in mM): 140 NaCl, 3 KCl, 1 CaCl2 1 MgCl2, 0.1 CdCl2, 20 TEA-Cl, 5 HEPES, adjusted to pH 7.3, Osmolality: 320 mOsm. […] Drugs were synthesized in Gedeon Richter Plc. […] The full list of drugs, with their three-letter codes, concentration, as well as their main therapeutic indication and main mechanism of action are shown in Table 1. […] The choice of concentrations used in this study may seem unusually high.
Data were sampled at a frequency of 25 kHz and filtered at 5 kHz. Junction potential was calculated to be −11 mV and was corrected for. […] Cells having membrane resistance < 500 MOhm, series resistance > 9 MOhm, or capacitance > 22 pF were excluded from analysis. The experimental protocol was also identical to the one used in our previous study: sodium channels were activated by 5 Hz trains of 5 depolarizations (−90 to −10 mV) repeated in every 20 s. In this study, however, the same control–drug-application–washout sequence was repeated four times: at neutral, acidic, alkalic, and again neutral pH. The peak amplitudes of sodium currents throughout the whole experiment are shown plotted against time in Figure 1 and Supplementary Figure 1.
Initial analysis, including subtraction of leak and capacitive artifacts, as well as peak detection were done in the QPatch software. […] All experiments were normalized to the amplitude of the current evoked by the first depolarization of the last train under control conditions. […] For all four drug applications in an experiment, apparent affinity, onset and offset time constants as well as reversibility values were calculated. […] (This method is equivalent to applying the Lineweaver-Burk plot method using a single concentration.) Reversibility values were calculated from control (c), inhibited (i), and wash-out (w) amplitudes as follows: Reversibility = (w-i)/(c-i). Reversibility values should not be regarded as experimental platform-independent properties of compounds. […] However, reversibility values are a valuable source of information regarding physicochemical differences between individual drugs, or between effects of the same drug under different extracellular pH conditions. Onset and offset time constants were determined by single exponential fitting to individual experiments. For neutral pH numerical data were given as the average of the data from the first and the last drug applications. Thin black lines on Figure 1 and Supplemental Figure 1 show the average of five fitted exponentials, (not the exponential fitted to the averaged normalized amplitudes). The numerical values of apparent affinity, onset and offset time constants and reversibility are shown in Table 2, and their relative position is illustrated in Figure 2. Affinity and time constant values were logarithmically transformed for statistics, therefore we show their geometric mean. For recovery data no transformation was done, and we show arithmetic mean values. Significance values were calculated using paired, two-tailed Student's t-test based on five pairs of apparent affinity (log transform), time constant (log transform), or reversibility values obtained from five individual experiments. Because of the large number of comparisons in this study, we accepted p < 0.01 as significant. Cluster analysis was done using Ward's minimum variance method, with Euclidean distance measure. Data were normalized by subtracting the mean (after logarithmic transformation in the case of apparent affinity and time constants), and dividing by the standard deviation.

[1] = pH 6.0, single concentration (lidocaine 300 μM, memantine 30 μM), geometric mean of 5, read-out: apparent affinity
[2] = pH 7.3, single concentration (lidocaine 300 μM, memantine 30 μM), geometric mean of 5, read-out: apparent affinity
[3] = pH 8.6, single concentration (lidocaine 300 μM, memantine 30 μM), geometric mean of 5, read-out: apparent affinity
[4] = pH=6.0, cc 100 mM, read-out: Apparent Affinity
[5] = pH=7.3, cc 100 mM, read-out: Apparent Affinity
[6] = pH=8.6, cc 100 mM, read-out: Apparent Affinity

T1 sequence (P04775 whole entry): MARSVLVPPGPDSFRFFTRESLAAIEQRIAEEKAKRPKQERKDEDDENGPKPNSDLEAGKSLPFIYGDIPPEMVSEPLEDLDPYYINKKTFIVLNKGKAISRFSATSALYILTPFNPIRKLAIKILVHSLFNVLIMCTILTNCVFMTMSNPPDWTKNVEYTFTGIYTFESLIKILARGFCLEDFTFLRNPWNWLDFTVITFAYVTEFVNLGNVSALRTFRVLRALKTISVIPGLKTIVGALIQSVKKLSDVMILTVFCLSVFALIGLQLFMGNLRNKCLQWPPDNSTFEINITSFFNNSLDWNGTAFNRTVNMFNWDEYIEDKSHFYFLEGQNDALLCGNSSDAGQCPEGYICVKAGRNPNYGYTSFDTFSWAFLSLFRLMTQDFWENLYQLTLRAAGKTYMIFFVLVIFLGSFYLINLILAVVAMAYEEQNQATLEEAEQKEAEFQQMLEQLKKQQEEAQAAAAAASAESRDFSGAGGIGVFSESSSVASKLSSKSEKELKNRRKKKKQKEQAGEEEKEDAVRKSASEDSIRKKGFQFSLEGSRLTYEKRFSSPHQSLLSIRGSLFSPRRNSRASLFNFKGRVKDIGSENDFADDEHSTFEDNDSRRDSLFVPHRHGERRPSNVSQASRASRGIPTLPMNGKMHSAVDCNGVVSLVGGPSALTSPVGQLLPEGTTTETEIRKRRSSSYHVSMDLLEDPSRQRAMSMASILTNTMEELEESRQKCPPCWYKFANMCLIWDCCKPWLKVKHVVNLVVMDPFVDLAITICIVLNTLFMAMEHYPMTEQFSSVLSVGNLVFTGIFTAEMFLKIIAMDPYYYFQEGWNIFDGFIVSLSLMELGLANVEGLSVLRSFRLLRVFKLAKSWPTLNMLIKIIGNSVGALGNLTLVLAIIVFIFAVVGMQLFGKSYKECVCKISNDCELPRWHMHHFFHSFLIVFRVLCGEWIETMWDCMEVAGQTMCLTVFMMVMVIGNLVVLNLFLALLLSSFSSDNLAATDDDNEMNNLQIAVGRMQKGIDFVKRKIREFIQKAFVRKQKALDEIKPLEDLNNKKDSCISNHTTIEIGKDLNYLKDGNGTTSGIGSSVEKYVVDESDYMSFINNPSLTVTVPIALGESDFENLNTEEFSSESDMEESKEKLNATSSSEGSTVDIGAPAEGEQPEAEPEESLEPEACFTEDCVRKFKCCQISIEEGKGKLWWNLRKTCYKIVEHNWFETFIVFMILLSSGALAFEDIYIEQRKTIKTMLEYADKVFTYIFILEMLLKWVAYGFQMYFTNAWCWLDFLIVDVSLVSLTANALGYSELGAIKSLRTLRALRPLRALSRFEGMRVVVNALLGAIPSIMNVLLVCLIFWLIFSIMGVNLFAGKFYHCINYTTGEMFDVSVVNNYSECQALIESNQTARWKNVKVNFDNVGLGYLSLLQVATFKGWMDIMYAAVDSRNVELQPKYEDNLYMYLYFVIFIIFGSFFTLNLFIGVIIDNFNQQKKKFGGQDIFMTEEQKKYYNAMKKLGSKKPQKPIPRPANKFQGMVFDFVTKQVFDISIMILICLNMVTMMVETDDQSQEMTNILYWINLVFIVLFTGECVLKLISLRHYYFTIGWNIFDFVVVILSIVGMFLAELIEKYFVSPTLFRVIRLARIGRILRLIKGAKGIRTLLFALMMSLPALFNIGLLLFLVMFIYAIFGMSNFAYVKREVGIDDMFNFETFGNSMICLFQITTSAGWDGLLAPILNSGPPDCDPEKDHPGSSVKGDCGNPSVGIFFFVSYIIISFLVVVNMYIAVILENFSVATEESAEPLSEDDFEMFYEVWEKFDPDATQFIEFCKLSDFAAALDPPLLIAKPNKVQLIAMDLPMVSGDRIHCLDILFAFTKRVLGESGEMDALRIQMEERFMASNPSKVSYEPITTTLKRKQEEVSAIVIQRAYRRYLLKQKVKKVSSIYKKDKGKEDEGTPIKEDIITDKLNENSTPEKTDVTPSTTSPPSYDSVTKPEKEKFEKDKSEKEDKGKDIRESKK

class of pH-dependence pattern (cluster analysis)	τoffset (pH 6.0) [s]	τonset (pH 6.0) [s]	Kd [1] [µM]	τoffset (pH 7.3) [s]	τonset (pH 7.3) [s]	Kd [2] [µM]	τoffset (pH 8.6) [s]	τonset (pH 8.6) [s]	Kd [3] [µM]	SMILES	Ratio Reversibility (pH 6.0/7.3, cc 100 mM)	Ratio Tau Offset (pH 6.0/7.3, cc 100 mM)	Ratio Tau Onset (pH 6.0/7.3, cc 100 mM)	log Ratio App Aff (pH 6.0/7.3, cc 100 mM)	Ratio Reversibility (pH 6.0/8.6, cc 100 mM)	Ratio Tau Offset (pH 6.0/8.6, cc 100 mM)	Ratio Tau Onset (pH 6.0/8.6, cc 100 mM)	log Ratio App Aff (pH 6.0/8.6, cc 100 mM)	Ratio Reversibility (pH 7.3/8.6, cc 100 mM)	Ratio Tau Offset (pH 7.3/8.6, cc 100 mM)	other results
Class G	8.50	7.60	138	11.20	8.60	88.7	12.00	11.40	44.2	Nc1c(Br)cc(Br)cc1CN[C@H]1CC[C@H](O)CC1 [ambroxol]	0.839	0.759	0.884	0.190	1.137	0.708	0.667	0.494	1.355	0.933	Ratio Tau Onset (pH 7.3/8.6, cc 100 mM): 0.754; log Ratio App Aff (pH 7.3/8.6, cc 100 mM): 0.303; Reversibility (pH=6.0, cc 100 mM): 0.65; Kd [4]: 138 µM; Reversibility (pH=7.3, cc 100 mM): 0.78; Kd [5]: 88.7 µM; Reversibility (pH=8.6, cc 100 mM): 0.58; Kd [6]: 44.2 µM
Class C	23.45	16.40	40.7	19.66	15.10	25.6	28.00	14.70	13.8	CN(C)CCC=C1c2ccccc2CCc2ccccc21 [amitriptyline]	–	–	–	–	–	–	–	–	–	–	Ratio Reversibility (pH 6.0/7.3, cc 30 mM): 1.364; Ratio Tau Offset (pH 6.0/7.3, cc 30 mM): 1.193; Ratio Tau Onset (pH 6.0/7.3, cc 30 mM): 1.086; log Ratio App Aff (pH 6.0/7.3, cc 30 mM): 0.202; Ratio Reversibility (pH 6.0/8.6, cc 30 mM): 5.190; Ratio Tau Offset (pH 6.0/8.6, cc 30 mM): 0.838; Ratio Tau Onset (pH 6.0/8.6, cc 30 mM): 1.116; log Ratio App Aff (pH 6.0/8.6, cc 30 mM): 0.469; Ratio Reversibility (pH 7.3/8.6, cc 30 mM): 3.806; Ratio Tau Offset (pH 7.3/8.6, cc 30 mM): 0.702; Ratio Tau Onset (pH 7.3/8.6, cc 30 mM): 1.027; log Ratio App Aff (pH 7.3/8.6, cc 30 mM): 0.267; Reversibility (pH=6.0, cc 30 mM): 0.74; Kd (pH=6.0, cc 30 mM, read-out: Apparent Affinity): 40.7 µM; Reversibility (pH=7.3, cc 30 mM): 0.55; Kd (pH=7.3, cc 30 mM, read-out: Apparent Affinity): 25.6 µM; Reversibility (pH=8.6, cc 30 mM): 0.14; Kd (pH=8.6, cc 30 mM, read-out: Apparent Affinity): 13.8 µM

SMILES	class of pH-dependence pattern (cluster analysis)	τoffset (pH 6.0) [s]	τonset (pH 6.0) [s]	Kd [1] [µM]	τoffset (pH 7.3) [s]	τonset (pH 7.3) [s]	Kd [2] [µM]	τoffset (pH 8.6) [s]	τonset (pH 8.6) [s]	Kd [3] [µM]	Ratio Reversibility (pH 6.0/7.3, cc 100 mM)	Ratio Tau Offset (pH 6.0/7.3, cc 100 mM)	Ratio Tau Onset (pH 6.0/7.3, cc 100 mM)	log Ratio App Aff (pH 6.0/7.3, cc 100 mM)	Ratio Reversibility (pH 6.0/8.6, cc 100 mM)	Ratio Tau Offset (pH 6.0/8.6, cc 100 mM)	Ratio Tau Onset (pH 6.0/8.6, cc 100 mM)	log Ratio App Aff (pH 6.0/8.6, cc 100 mM)	Ratio Reversibility (pH 7.3/8.6, cc 100 mM)	Ratio Tau Offset (pH 7.3/8.6, cc 100 mM)	other results
CCCCN1CCCCC1C(=O)Nc1c(C)cccc1C (stereo not shown) [bupivacaine]	Class B	56.00	51.00	106	20.80	12.20	64.2	12.40	11.80	41	0.906	2.692	4.180	0.218	1.346	4.516	4.322	0.412	1.485	1.677	effect of alkalic pH on onset/offset kinetics (in words): significant acceleration of both onset and offset; Ratio Tau Onset (pH 7.3/8.6, cc 100 mM): 1.034; log Ratio App Aff (pH 7.3/8.6, cc 100 mM): 0.194; Reversibility (pH=6.0, cc 100 mM): 0.64; Kd [4]: 106 µM; Reversibility (pH=7.3, cc 100 mM): 0.71; Kd [5]: 64.2 µM; Reversibility (pH=8.6, cc 100 mM): 0.48; Kd [6]: 41 µM
